Test system: Cat G
Test: Cat G activity in blood and bone marrow of mice
Assay type: in vivo, C57BL/6 mice
Settings: 30 mg/kg daily gavage, 7 days
Experimental: A total of 25 C57BL/6 mice (6–8 weeks old, weighing approximately 20 g, with equal numbers of males and females) were randomly divided into five groups. Mice in the compound-treated groups were orally administered the compound once daily at doses of 0.3, 3, and 30 mg/kg for 7 consecutive days. […] Mice in the normal group were given an equal volume of normal saline at the same time points. The body weight, death rate, and behavior were observed and recorded daily for one week. After 7 days, bone marrow and blood samples were collected from the mice and lysed using 8% Triton X-100 buffer. The lysates were stored at −20 °C until testing. The activity assays for CTSC and NSPs were performed as described above. The mice were anesthetized and the tissues were taken for H&E staining.

In the case of `C[C@@H]1C[C@H]2OC(=O)[C@@]3(C)CCC[C@@](C)([C@@H]23)[C@@]1(O)CCc1ccoc1` [Marrubiin, marrubiin], the “remaining activity rate of Cat G” value (blood) is reported as ~35.5% and the “remaining activity rate of Cat G” value (bone marrow) is reported as ~40.2%.

From paper PMC12610274, “Identification of Marrubiin as a Cathepsin C Inhibitor for Treating Rheumatoid Arthritis” (Molecules, 2025)
